Data reported in PubChem BioAssay AID1963964 (Molecular Pharmacology Branch, DTP, NCI, 2024).

Tested on: 997726-040-R-J2-PDC tumor spheroids, viability
Assay: Anticancer human tumor 997726-040-R-J2-PDC patient-derived squamous cell lung carcinoma cell line growth inhibition [PI3K]
Settings: spheroids with HUVEC and MSC; for viability, T/C: stronger effect = lower value
Summary of the method: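 Tumor cells were combined with HUVEC and MSCs into spheroids, then dosed with PI3K-inhibitor combinations over half-log ranges capped near clinical Cmax or 10 microM.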

[1] = curve of first compound, second compound 0.0316 µM
[2] = curve of first compound, second compound 0.1 µM
[3] = curve of first compound, second compound 0.316 µM
[4] = curve of first compound, second compound 1 µM
[5] = second compound 0.0316 µM, first compound 0.0316 µM
[6] = second compound 0.0316 µM, first compound 0.1 µM
[7] = second compound 0.0316 µM, first compound 0.316 µM
[8] = second compound 0.0316 µM, first compound 1 µM
[9] = second compound 0.0316 µM, first compound 3.16 µM
[10] = second compound 0.0316 µM, first compound 10 µM
[11] = second compound 0.1 µM, first compound 0.0316 µM
[12] = second compound 0.1 µM, first compound 0.1 µM
[13] = second compound 0.1 µM, first compound 0.316 µM
[14] = second compound 0.1 µM, first compound 1 µM
[15] = second compound 0.1 µM, first compound 3.16 µM
[16] = second compound 0.1 µM, first compound 10 µM
[17] = second compound 0.316 µM, first compound 0.0316 µM
[18] = second compound 0.316 µM, first compound 0.1 µM
[19] = second compound 0.316 µM, first compound 0.316 µM
[20] = second compound 0.316 µM, first compound 1 µM
[21] = second compound 0.316 µM, first compound 3.16 µM
[22] = second compound 0.316 µM, first compound 10 µM
[23] = second compound 1 µM, first compound 0.0316 µM
[24] = second compound 1 µM, first compound 0.1 µM
[25] = second compound 1 µM, first compound 0.316 µM
[26] = second compound 1 µM, first compound 1 µM
[27] = second compound 1 µM, first compound 3.16 µM
[28] = second compound 1 µM, first compound 10 µM
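Also: spheroids exposed to compounds for seven days before readout.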

For CCN1CCN(Cc2ccc(Nc3ncc(F)c(-c4cc(F)c5nc(C)n(C(C)C)c5c4)n3)nc2)CC1, the viability, T/C (compound 0.00316 µM) was 94% [middle of 4 runs], the viability, T/C (compound 0.01 µM) was 88.4% [middle of 4 runs] and the viability, T/C (compound 0.0316 µM) was 74.3% [middle of 4 runs]. For the same compound, the viability, T/C (compound 0.1 µM) was 64.8% [middle of 4 runs], the viability, T/C (compound 0.316 µM) was 68.5% [middle of 4 runs] and the IC50 (curve of compound) was over 1 µM.
Compound CC1(C)CCC(CN2CCN(c3ccc(C(=O)NS(=O)(=O)c4ccc(NCC5CCOCC5)c([N+](=O)[O-])c4)c(Oc4cnc5[nH]ccc5c4)c3)CC2)=C(c2ccc(Cl)cc2)C1 + CC(Nc1ncnc2nc[nH]c12)c1cc2cccc(Cl)c2c(=O)n1-c1ccccc1 has an IC50 [1] of over 10 µM, an IC50 [2] of 9.87 µM and an IC50 [3] of 9.36 µM. It also gave an IC50 [4] of over 10 µM, an IC50 (curve of first compound, second compound 3.16 µM) of 6.26 µM and an IC50 (curve of first compound, second compound 10 µM) of 3.37 µM. For the same compound, the viability, T/C [5] was 101%, the viability, T/C [6] was 87.9% and the viability, T/C [7] was 93.4%. The viability, T/C [8] was 102%, the viability, T/C [9] was 104% and the viability, T/C [10] was 52.2%. The viability, T/C [11] was 102%, the viability, T/C [12] was 94% and the viability, T/C [13] was 109%. The viability, T/C [14] was 105%, the viability, T/C [15] was 98.6% and the viability, T/C [16] was 49.4%. For the same compound, the viability, T/C [17] was 97.1%, the viability, T/C [18] was 95.4% and the viability, T/C [19] was 103%. The viability, T/C [20] was 93.5%, the viability, T/C [21] was 91.7% and the viability, T/C [22] was 47.2%. It also gave a viability, T/C [23] of 94.3%, a viability, T/C [24] of 85.7% and a viability, T/C [25] of 92%. It also gave a viability, T/C [26] of 80.6%, a viability, T/C [27] of 89.9% and a viability, T/C [28] of 51%. For the same compound, the viability, T/C (second compound 3.16 µM, first compound 0.0316 µM) was 73.1%, the viability, T/C (second compound 3.16 µM, first compound 0.1 µM) was 74.5% and the viability, T/C (second compound 3.16 µM, first compound 0.316 µM) was 73%. For the same compound, the viability, T/C (second compound 3.16 µM, first compound 1 µM) was 72.4%, the viability, T/C (second compound 3.16 µM, first compound 3.16 µM) was 71.9% and the viability, T/C (second compound 3.16 µM, first compound 10 µM) was 35.1%. For the same compound, the viability, T/C (second compound 10 µM, first compound 0.0316 µM) was 55.7%, the viability, T/C (second compound 10 µM, first compound 0.1 µM) was 56.4% and the viability, T/C (second compound 10 µM, first compound 0.316 µM) was 48.3%. It also gave a viability, T/C (second compound 10 µM, first compound 1 µM) of 53.8%, a viability, T/C (second compound 10 µM, first compound 3.16 µM) of 51.2% and a viability, T/C (second compound 10 µM, first compound 10 µM) of 29.4%.
CC(C)NCC(C(=O)N1CCN(c2ncnc3c2C(C)CC3O)CC1)c1ccc(Cl)cc1 (configuration not stated) was tested, and the viability, T/C (compound 0.0316 µM) was 88.5% [middle of 4 runs], the viability, T/C (compound 0.1 µM) was 77% [middle of 4 runs] and the viability, T/C (compound 0.316 µM) was 51.8% [middle of 4 runs]. The viability, T/C (compound 1 µM) was 25.5% [middle of 4 runs], the viability, T/C (compound 3.16 µM) was 13.7% [middle of 4 runs] and the viability, T/C (compound 10 µM) was 9.08% [middle of 4 runs]. For the same compound, the IC50 (curve of compound) was 336 nM [middle of 4 runs].
Cn1ncc(Cl)c1-c1cc(C(=O)NC(CN)Cc2cccc(F)c2)sc1Cl (configuration not stated) + COc1c(OCCCN2CCOCC2)ccc2c3n(c(=NC(=O)c4cnc(N)nc4)nc12)CCN3 gave an IC50 (curve of first compound, second compound 0.00316 µM) of 0.0532 µM, an IC50 (curve of first compound, second compound 0.01 µM) of under 0.0316 µM and an IC50 [1] of under 0.0316 µM. For the same compound, the IC50 [2] was under 0.0316 µM, the IC50 [3] was under 0.0316 µM and the IC50 [4] was under 0.0316 µM. The viability, T/C (second compound 0.00316 µM, first compound 0.0316 µM) was 55.2%, the viability, T/C (second compound 0.00316 µM, first compound 0.1 µM) was 43.9% and the viability, T/C (second compound 0.00316 µM, first compound 0.316 µM) was 25.2%. It also gave a viability, T/C (second compound 0.00316 µM, first compound 1 µM) of 15.7%, a viability, T/C (second compound 0.00316 µM, first compound 3.16 µM) of 9.84% and a viability, T/C (second compound 0.00316 µM, first compound 10 µM) of 10.3%. The viability, T/C (second compound 0.01 µM, first compound 0.0316 µM) was 46.3%, the viability, T/C (second compound 0.01 µM, first compound 0.1 µM) was 39% and the viability, T/C (second compound 0.01 µM, first compound 0.316 µM) was 21.6%. It also gave a viability, T/C (second compound 0.01 µM, first compound 1 µM) of 12.4%, a viability, T/C (second compound 0.01 µM, first compound 3.16 µM) of 7.68% and a viability, T/C (second compound 0.01 µM, first compound 10 µM) of 10.1%. The viability, T/C [5] was 30.6%, the viability, T/C [6] was 28% and the viability, T/C [7] was 20%. The viability, T/C [8] was 10.6%, the viability, T/C [9] was 8.98% and the viability, T/C [10] was 7.48%. For the same compound, the viability, T/C [11] was 21.4%, the viability, T/C [12] was 19.4% and the viability, T/C [13] was 12.5%. It also gave a viability, T/C [14] of 8.76%, a viability, T/C [15] of 8.67% and a viability, T/C [16] of 5.52%. It also gave a viability, T/C [17] of 4.97%, a viability, T/C [18] of 5.24% and a viability, T/C [19] of 3.32%. The viability, T/C [20] was 4.64%, the viability, T/C [21] was 4.59% and the viability, T/C [22] was 3.13%. The viability, T/C [23] was 1.15%, the viability, T/C [24] was 1.24% and the viability, T/C [25] was 1.45%. The viability, T/C [26] was 1.8%, the viability, T/C [27] was 2.57% and the viability, T/C [28] was 0.94%.
